Results as given in patent US8034843B2, “Compositions comprising cannabinoids for treatment of nausea, vomiting, emesis, motion sickness or like conditions” (priority 2002, dated 2011).

Assays:
[1] = Stability of purified CBDA in solution; assay type: physicochemical
Source text: This undesirable decarboxylation of the purified material might be minimised by manipulation of CBDA at sub-ambient temperatures.

[2] = target: CB2 (Peripheral receptors) (Homo sapiens, UniProt P34972); details: cited from earlier work
Sequence of CB2 (Peripheral receptors) (P34972 whole entry, species assumed): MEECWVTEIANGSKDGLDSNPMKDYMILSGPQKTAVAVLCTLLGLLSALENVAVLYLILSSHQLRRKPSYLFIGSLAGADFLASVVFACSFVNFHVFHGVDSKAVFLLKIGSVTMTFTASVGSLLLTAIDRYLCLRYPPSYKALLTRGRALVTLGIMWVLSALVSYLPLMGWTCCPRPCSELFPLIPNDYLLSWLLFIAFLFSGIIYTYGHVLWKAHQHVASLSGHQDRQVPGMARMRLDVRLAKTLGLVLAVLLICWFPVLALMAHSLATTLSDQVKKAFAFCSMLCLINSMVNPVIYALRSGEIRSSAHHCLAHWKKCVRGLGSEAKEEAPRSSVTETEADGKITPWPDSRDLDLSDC

Compound: C=C(C)[C@@H]1CCC(C)=C[C@H]1c1c(O)cc(CCCCC)c(C(=O)O)c1O [CBDA]
- decarboxylation in solution (CBDA→CBD+CO2) [1]: slowly decarboxylates in solution

Compound: CCCCCc1cc(O)c2c(c1)OC(C)(C)[C@@H]1CCC(C)=C[C@@H]21 [THC, delta^9-tetrahydrocannabinol]
- binding to CB2 receptors [2]: bound with high avidity
